The values that follow are results of earlier work, collected in US20110301189A1, “STABLE PHARMACEUTICAL COMPOSITIONS OF RAPAMYCIN ESTERS” (FRESENIUS KABI ONCOLOGY LTD., priority 2010, published 2011).

The conditions of the series: aqueous solvents.

On to `COC1CC2CCC(C)C(O)(O2)C(=O)C(=O)N2CCCCC2C(=O)OC(C(C)CC2CCC(OC(=O)C(C)(CO)CO)C(OC)C2)CC(=O)C(C)/C=C(\C)C(O)C(OC)C(=O)C(C)CC(C)/C=C/C=C/C=C/1C` (stereo not shown) [Rapamycin 42-ester with 3-hydroxy-2-(hydroxymethyl)-2-methylpropionic acid], for which the aqueous solubility result was “less than 1 μg/ml”.
